Some test systems named below: MDA-MB-435; OVCAR-4; HT-29; HCT-116; TK-10; HL-60; OVCAR-8; SF-268; RXF 393; NCI-H23; CAKI-1; NCI-H460; NCI/ADR-RES; SK-MEL-28; SK-MEL-2; T47D; EKVX; KM12; PC-3; COLO 205.
Holding throughout (test): NCI tumour cell line growth inhibition, 48 h

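All cell lines were grown in 96-well plates and treated with compound for 48 hours. GI50: concentration for 50% inhibition of growth.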 Active and inactive are the calls of the source. Rule as the data show it: active = GI50 up to about 1.1 µM and inactive = higher.

Regarding `COc1cccc2cc(C(C)=O)c(=O)oc12`, the GI50 with MDA-MB-435, in the test with OVCAR-4, with HT-29, in the test with HCT-116, in the test on TK-10 and in the test with HL-60 was > 100 µM (inactive) in each case. The GI50 in the test with OVCAR-8, in the test with SF-268, in the test on RXF 393, in the test on NCI-H23, in the test with CAKI-1 and in the test on NCI-H460 was > 100 µM (inactive) in each case. Besides, the GI50 in the test with NCI/ADR-RES was > 100 µM (inactive); with SK-MEL-28, > 100 µM (inactive); in the test on SK-MEL-2, > 100 µM (inactive); in the test on T47D, 12.6 µM (inactive); in the test on EKVX it was > 100 µM (inactive); in the test with KM12 it was > 100 µM (inactive). Moreover, the GI50 in the test with PC-3 and in the test with COLO 205 was > 100 µM (inactive) each time.

Take `Cc1ccc2c(c1)S(=O)(=O)c1ccc3ccccc3c1N2`: the GI50 with MDA-MB-435, in the test on OVCAR-4, with HT-29, with HCT-116, in the test with TK-10 and with HL-60 was > 100 µM (inactive) each time. The GI50 in the test with OVCAR-8, in the test with SF-268, with RXF 393, with NCI-H23, with CAKI-1 and in the test on NCI-H460 was > 100 µM (inactive) in each case. For the same compound, the GI50 with NCI/ADR-RES, in the test with SK-MEL-28, with SK-MEL-2, in the test with T47D, in the test on EKVX and in the test on KM12 was > 100 µM (inactive) each time. Also, the GI50 in the test on PC-3 and in the test with COLO 205 was > 100 µM (inactive) in each case.

In the case of `CCOc1ccc(-n2c(=O)n3c(Nc4ccc(Cl)cc4)nc4c(c(=O)n(C)c(=O)n4C)n3c2=O)cc1`, the GI50 is 20.3 µM (inactive) in the test with MDA-MB-435; 53 µM (inactive) in the test on OVCAR-4; 27.7 µM (inactive) in the test with HT-29; 19.5 µM (inactive) with HCT-116; 18.8 µM (inactive) in the test with TK-10; 22 µM (inactive) with HL-60. Moreover, the GI50 in the test on OVCAR-8 was 36.8 µM (inactive); in the test on SF-268 it was 34.8 µM (inactive); in the test on RXF 393, 26.6 µM (inactive); in the test on NCI-H23 it was 27.5 µM (inactive); in the test on CAKI-1, 38.5 µM (inactive); in the test with NCI-H460, 19.5 µM (inactive). For the same compound, the GI50 was > 100 µM (inactive) with NCI/ADR-RES; 28.2 µM (inactive) in the test with SK-MEL-28; 26.4 µM (inactive) in the test on SK-MEL-2; 39.2 µM (inactive) in the test with T47D; 24.9 µM (inactive) with EKVX; 16 µM (inactive) in the test on KM12. For the same compound, the GI50 is 47.6 µM (inactive) in the test on PC-3 and 21.6 µM (inactive) in the test with COLO 205.

In the case of `CCOc1ccccc1/N=N/C1C(=O)N(C(=O)CC(=O)Nc2ccccc2OC)N=C1C` (stereo not given), the GI50 in the test with MDA-MB-435 was > 100 µM (inactive); in the test on OVCAR-4, > 100 µM (inactive); in the test on HT-29, > 100 µM (inactive); in the test on HCT-116, 40.9 µM (inactive); in the test with TK-10 it was > 100 µM (inactive); with HL-60 it was > 100 µM (inactive). Besides, the GI50 in the test with OVCAR-8 was 37.5 µM (inactive); in the test with SF-268, 22.4 µM (inactive); in the test with RXF 393, 24.2 µM (inactive); in the test on NCI-H23 it was 80 µM (inactive); in the test with CAKI-1 it was > 100 µM (inactive); in the test on NCI-H460, 42.4 µM (inactive). Moreover, the GI50 was 54.7 µM (inactive) in the test on NCI/ADR-RES; > 100 µM (inactive) in the test on SK-MEL-28; 55.7 µM (inactive) in the test on SK-MEL-2; 37 µM (inactive) in the test with T47D; 0.427 µM (active) in the test on EKVX; > 100 µM (inactive) in the test on KM12. For the same compound, the GI50 in the test on PC-3 and in the test on COLO 205 was > 100 µM (inactive) each time.

Take `O=C1CC(c2n[nH]c3ccccc23)C(=O)N1c1ccccc1` (stereo not given): the GI50 in the test with MDA-MB-435 was > 100 µM (inactive); in the test with OVCAR-4, > 100 µM (inactive); in the test on HT-29, > 100 µM (inactive); in the test on HCT-116, > 100 µM (inactive); in the test with TK-10 it was > 100 µM (inactive); in the test on HL-60 it was 25.6 µM (inactive). In addition, the GI50 in the test with OVCAR-8, in the test with SF-268, in the test with RXF 393, in the test on NCI-H23, with CAKI-1 and with NCI-H460 was > 100 µM (inactive) in each case. Further, the GI50 in the test with NCI/ADR-RES, in the test on SK-MEL-28, in the test with SK-MEL-2, in the test on T47D, with EKVX and with KM12 was > 100 µM (inactive) each time. Also, the results for the GI50 with PC-3 and in the test on COLO 205 were > 100 µM (inactive) and > 93.8 µM (inactive), respectively.

For the compound `COc1ccc(CCN2CCN(CCc3ccc(OC)cc3)CC2)cc1`, the GI50 in the test on MDA-MB-435, in the test on OVCAR-4, in the test on HT-29, in the test with HCT-116, in the test with TK-10 and in the test with HL-60 was > 100 µM (inactive) throughout. For the same compound, the GI50 was > 100 µM (inactive) in the test on OVCAR-8; > 100 µM (inactive) in the test with SF-268; 26.2 µM (inactive) with RXF 393; > 100 µM (inactive) in the test on NCI-H23; > 100 µM (inactive) in the test with CAKI-1; > 100 µM (inactive) with NCI-H460. Besides, the GI50 in the test with NCI/ADR-RES, in the test on SK-MEL-28, in the test with SK-MEL-2, in the test on T47D, with EKVX and in the test on KM12 was > 100 µM (inactive) throughout. Moreover, the GI50 in the test with PC-3 and with COLO 205 was > 100 µM (inactive) each time.

As for `OCCN1CN(c2nc(N3CN(CCO)C3)nc(N3CN(CCO)C3)n2)C1`, the GI50 was 17.8 µM (inactive) in the test with MDA-MB-435; 30.6 µM (inactive) in the test on OVCAR-4; 25.5 µM (inactive) in the test on HT-29; 18.6 µM (inactive) in the test on HCT-116; 30.6 µM (inactive) in the test with TK-10; 16 µM (inactive) in the test with HL-60. The GI50 with OVCAR-8 is 45.6 µM (inactive); with SF-268, 22.6 µM (inactive); with RXF 393, 22.7 µM (inactive); in the test with NCI-H23, 22.2 µM (inactive); in the test on CAKI-1 it was 22.5 µM (inactive); in the test with NCI-H460, 19.5 µM (inactive). Moreover, the GI50 with NCI/ADR-RES was 31.1 µM (inactive); with SK-MEL-28, 17.7 µM (inactive); with SK-MEL-2, 18.7 µM (inactive); in the test on T47D, 25.8 µM (inactive); in the test with EKVX, 26.8 µM (inactive); with KM12 it was 21.4 µM (inactive). For the same compound, the GI50 is 22.1 µM (inactive) in the test with PC-3 and 28 µM (inactive) in the test on COLO 205.
